The record followed here is ChEMBL document CHEMBL1201862, “PubChem BioAssay data set” (2004).

Each structure is given as a SMILES string. Activity calls are given as the source filed them.

One may read the EC50 as the concentration giving half of the maximal effect. By IC50 is commonly meant the concentration that inhibits the measured activity by half. For orientation: AC50 means the midpoint of the concentration-response curve, whichever way the signal moves.

Data set [1] can be described thus: cells. Format: functional, cell-based.
A short description of data set [2]: Luminescence Cell-Based Dose HTS Response to Identify Inhibitors of 5'UTR Stem-Loop Driven Prion Protein mRNA Translation in H4-C Neuroglioblastoma Cells. [Related pubchem assays (depositor defined):AID1814, AID1827]. Format: functional.
A short description of data set [3]: luciferase reporter signal suppression in cells – H4 neuroglioma cells, luminescence, dose response (AID 1990). In kind it is functional, cell-based. On the technique in general: A reporter such as luciferase makes a cellular process visible.
A short description of data set [4]: HEK-293T viability loss after treatment – luminescence, T-cell screen hits, cytotoxicity control for TCR NF-kB inhibitor project, dose response (AID 489026).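 Further: cells exposed to compound about 14 hours before the viability readout.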 Format: functional, cell-based.
Data set [5] is described as follows: Luminescence Cell-Based Dose Retest to Confirm Activators of 5'UTR Stem-Loop Driven Alpha-Synuclein mRNA Translation in H4 Neuroglioblastoma Cells. [Related pubchem assays (depositor defined):AID1813, AID1829]. Format: functional.
Data set [6] in a line: luciferase reporter signal reduction – luminescence, H4-C neuroglioblastoma cells, dose response (AID 2458).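 Further: H4 neuroglioblastoma cells stably carrying a luciferase reporter gene fusion.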 Format: functional, cell-based.
Data set [7] has as its system BJ. In words: cells. Format: functional, cell-based. The following applies: Homo sapiens.
A short description of data set [8]: Luminescence Cell-Based Dose Response HTS to Identify Inhibitors of 5'UTR Stem-Loop Driven Prion Protein mRNA Translation in H4 Neuroglioblastoma Cells. [Related pubchem assays: 1827 (Project Summary), 1813 (Primary HTS)]. In kind it is functional.
Data set [9] can be described thus: Luminescence Cell-Based Dose Response HTS to Identify Activators of Luciferase Translation or Activity in H4-C Neuroglioblastoma Cells. [Related pubchem assays: 1829 (Project Summary), 1814 (Primary HTS)]. In kind it is functional.
Data set [10] can be described thus: alpha-synuclein stem-loop translation blockers – luminescence, H4 neuroglioblastoma cells, dose confirmation, confirmation (AID 2454).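 Further: H4 neuroglioblastoma cells carrying an alpha-synuclein 5'UTR luciferase reporter; potency for inhibition of the luciferase signal.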 Format: functional, cell-based.
A short description of data set [11]: alpha-synuclein stem-loop luciferase translation blockers – H4 neuroglioma cells, luminescence, confirmation (AID 1988). Format: functional, cell-based.
The nature of data set [12]: Luminescence Cell-Based Dose Response HTS to Identify Inhibitors of Luciferase Translation or Activity in H4-C Neuroglioblastoma Cells. [Related pubchem assays: 1813 (Primary HTS), 1827 (Project Summary)]. In kind it is functional.
Data set [13] in a line: Luminescence Cell-Based Dose Response HTS to Identify Activators of 5'UTR Stem-Loop Driven Prion Protein mRNA Translation in H4-C Neuroglioblastoma Cells. [Related pubchem assays: 1829 (Project Summary), 1814 (Primary HTS)]. Format: functional.
A short description of data set [14]: DRD fibroblast viability loss – cell-based, non-viral oncogenic, luminescence, dose response (AID 1934). The following applies: Homo sapiens. In kind it is functional.
Data set [15] has as its system BJ. In words: BJ-TERT-LT-ST fibroblast viability loss – cell-based, RAS-independent, luminescence, dose response (AID 1935).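 Further: BJ fibroblasts immortalized with TERT plus LT and ST oncogenes.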 Format: functional. As to conditions: Homo sapiens.
Data set [16] is described as follows: Luminescence Cell-Based Dose Confirmation HTS to Identify Inhibitors of 5'UTR Stem-Loop Driven Alpha-Synuclein mRNA Translation in H4 Neuroglioblastoma Cells. [Related pubchem assays: 1827 (Project Summary), 1813 (Primary HTS)]. In kind it is functional.
The target of data set [17] is Peroxisome proliferator-activated receptor gamma/Nuclear receptor coactivator 1 (Homo sapiens, UniProt P37231). Description: TR-FRET dose response biochemical High Throughput Screening assay for agonists of the steroid receptor coactivator 1 (SRC-1) recruitment by the peroxisome proliferator-activated receptor gamma (PPAR gamma): non-selective agonists. [Related pubchem assays (depositor defined):AID1300, AID1808, AID504735, AID631]. Format: protein assay.

Data set [18] addresses Peroxisome proliferator-activated receptor gamma/Nuclear receptor coactivator 2 (Homo sapiens, UniProt P37231). In words: TR-FRET dose response biochemical High Throughput Screening assay for agonists of the steroid receptor coactivator 2 (SRC-2) recruitment by the peroxisome proliferator-activated receptor gamma (PPAR gamma): non-selective agonists. [Related pubchem assays: 1297, 1032 ]. Format: functional. A general note: In TR-FRET formats the signal depends on donor and acceptor labels being close together.

The target of data set [19] is Peroxisome proliferator-activated receptor gamma/Nuclear receptor coactivator 3 (Homo sapiens, UniProt P37231). In words: TR-FRET dose response biochemical High Throughput Screening assay for agonists of the steroid receptor coactivator 3 (SRC-3) recruitment by the peroxisome proliferator-activated receptor gamma (PPAR gamma): non-selective agonists. [Related pubchem assays: 1301 (Confirmation screen.), 1048 (Primary screen.)]. In kind it is functional.

In data set [20] the target is Cytochrome P450 2C9 (Homo sapiens, UniProt P11712).
Data set [21] addresses T1, Cytochrome P450 1A2 (Homo sapiens, UniProt P05177).
T1 sequence (P05177 whole entry): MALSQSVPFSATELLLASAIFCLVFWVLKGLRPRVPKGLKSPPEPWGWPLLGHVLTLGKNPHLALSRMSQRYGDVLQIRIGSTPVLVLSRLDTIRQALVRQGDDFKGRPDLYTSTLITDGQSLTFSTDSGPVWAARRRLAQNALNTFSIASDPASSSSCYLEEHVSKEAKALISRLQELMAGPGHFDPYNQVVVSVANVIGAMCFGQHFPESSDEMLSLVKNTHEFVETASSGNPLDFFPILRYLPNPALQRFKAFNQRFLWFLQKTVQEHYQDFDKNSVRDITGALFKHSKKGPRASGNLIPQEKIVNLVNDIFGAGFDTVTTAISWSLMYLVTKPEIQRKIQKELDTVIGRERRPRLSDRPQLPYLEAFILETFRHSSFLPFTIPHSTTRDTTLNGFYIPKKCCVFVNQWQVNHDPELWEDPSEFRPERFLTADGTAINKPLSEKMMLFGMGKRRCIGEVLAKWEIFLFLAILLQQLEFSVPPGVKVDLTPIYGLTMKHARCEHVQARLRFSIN

In data set [22] the target is Intestinal-type alkaline phosphatase (Homo sapiens, UniProt P09923). In words: inhibition of human intestinal alkaline phosphatase – biochemical, dose response (AID 488876). Format: functional.
The nature of data set [23]: Luminescence Cell-Based Dose Confirmation to Identify Activators of 5'UTR Stem-Loop Driven Alpha-Synuclein mRNA Translation in H4 Neuroglioblastoma Cells. [Related pubchem assays: 1829 (Project Summary), 1814 (Primary HTS)]. Format: functional.
Data set [24] concerns the target Mitogen-activated protein kinase 10 (Homo sapiens, UniProt P53779). Description: Dose response biochemical screening assay for inhibitors of c-Jun N-Terminal Kinase 3 (JNK3). [Related pubchem assays: 746 ].
Data set [25] concerns the target T2, Alkaline phosphatase, tissue-nonspecific isozyme (Homo sapiens, UniProt P05186).
T2 sequence (P05186 whole entry): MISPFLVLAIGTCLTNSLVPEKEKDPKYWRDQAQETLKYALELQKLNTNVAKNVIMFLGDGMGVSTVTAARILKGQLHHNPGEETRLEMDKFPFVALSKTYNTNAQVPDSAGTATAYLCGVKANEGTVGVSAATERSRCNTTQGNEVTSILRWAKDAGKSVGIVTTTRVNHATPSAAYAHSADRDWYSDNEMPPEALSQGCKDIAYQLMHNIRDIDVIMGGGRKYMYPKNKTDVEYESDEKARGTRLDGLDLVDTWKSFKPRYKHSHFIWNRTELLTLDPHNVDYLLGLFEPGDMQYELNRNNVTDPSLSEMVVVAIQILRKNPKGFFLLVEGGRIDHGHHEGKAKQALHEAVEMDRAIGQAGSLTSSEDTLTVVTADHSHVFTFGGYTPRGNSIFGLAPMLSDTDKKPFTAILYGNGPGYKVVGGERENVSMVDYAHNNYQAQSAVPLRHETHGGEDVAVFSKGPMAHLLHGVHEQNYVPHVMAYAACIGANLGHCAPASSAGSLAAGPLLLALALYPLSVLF
Description: TNAP enzyme inhibition by screening hits, dose response, selectivity assay for mouse IAP inhibitor project, biochemical, human TNAP, uHTS hits (AID 488906). Format: functional.

The nature of data set [26]: Luminescence Cell-Based Dose Response to Identify Activators of Luciferase Translation or Activity in H4-C Neuroglioblastoma Cells. [Related pubchem assays: 1829 (Project Summary), 1814 (Primary HTS)]. Format: functional.
Data set [27] deals with Intestinal-type alkaline phosphatase (Mus musculus, UniProt P24822). Description: PubChem AID 488785. In kind it is functional.
The nature of data set [28]: Luminescence Cell-Based Dose Response HTS to Identify Activators of Luciferase Translation or Activity in H4 […] Cells. [Related pubchem assays: 1829 (Project Summary), 1814 (Primary HTS)]. In kind it is functional.
Data set [29] in a line: Luminescence Cell-Based Dose Response to Identify Activators of 5'UTR Stem-Loop Driven Prion Protein mRNA Translation in H4-C Neuroglioblastoma Cells. [Related pubchem assays: 1829 (Project Summary), 1814 (Primary HTS)]. Format: functional.
Data set [30] relates to H4. In words: Luminescence Cell-Based Dose Response HTS to Identify Activators of 5'UTR Stem-Loop Driven Prion Protein mRNA Translation in H4 Neuroglioblastoma Cells. [Related pubchem assays: 1829 (Project Summary), 1814 (Primary HTS)]. The following applies: Homo sapiens. In kind it is functional.

Sequence of Intestinal-type alkaline phosphatase (Mus musculus, UniProt P24822) (P24822 whole entry): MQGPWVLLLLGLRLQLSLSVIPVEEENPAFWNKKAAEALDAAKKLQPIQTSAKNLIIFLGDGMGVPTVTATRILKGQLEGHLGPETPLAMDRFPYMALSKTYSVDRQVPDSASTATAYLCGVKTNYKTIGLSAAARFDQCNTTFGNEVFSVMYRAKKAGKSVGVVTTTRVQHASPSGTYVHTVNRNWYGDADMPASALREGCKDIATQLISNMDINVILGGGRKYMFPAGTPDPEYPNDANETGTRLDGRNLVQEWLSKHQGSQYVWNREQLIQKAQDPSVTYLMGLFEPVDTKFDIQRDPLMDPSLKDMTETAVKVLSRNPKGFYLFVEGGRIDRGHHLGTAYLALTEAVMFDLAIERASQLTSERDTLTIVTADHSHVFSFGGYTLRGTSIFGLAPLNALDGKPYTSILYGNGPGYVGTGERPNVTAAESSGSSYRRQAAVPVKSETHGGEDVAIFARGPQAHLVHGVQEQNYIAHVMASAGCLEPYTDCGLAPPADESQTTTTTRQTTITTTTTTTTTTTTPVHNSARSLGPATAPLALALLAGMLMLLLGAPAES
Sequence of Mitogen-activated protein kinase 10 (P53779 whole entry): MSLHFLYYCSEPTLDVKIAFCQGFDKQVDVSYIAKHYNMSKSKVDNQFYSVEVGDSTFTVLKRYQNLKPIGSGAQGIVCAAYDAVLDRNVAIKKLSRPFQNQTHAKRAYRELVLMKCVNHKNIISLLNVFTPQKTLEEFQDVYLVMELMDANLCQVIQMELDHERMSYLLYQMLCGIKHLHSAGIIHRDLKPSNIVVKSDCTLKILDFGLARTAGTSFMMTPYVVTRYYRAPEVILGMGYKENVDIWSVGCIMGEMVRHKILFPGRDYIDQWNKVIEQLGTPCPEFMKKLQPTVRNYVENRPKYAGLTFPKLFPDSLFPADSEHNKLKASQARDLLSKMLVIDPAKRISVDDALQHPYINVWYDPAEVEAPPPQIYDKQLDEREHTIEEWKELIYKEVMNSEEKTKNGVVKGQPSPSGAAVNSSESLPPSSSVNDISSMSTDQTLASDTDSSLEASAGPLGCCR
Sequence of Cytochrome P450 2C9 (P11712 whole entry): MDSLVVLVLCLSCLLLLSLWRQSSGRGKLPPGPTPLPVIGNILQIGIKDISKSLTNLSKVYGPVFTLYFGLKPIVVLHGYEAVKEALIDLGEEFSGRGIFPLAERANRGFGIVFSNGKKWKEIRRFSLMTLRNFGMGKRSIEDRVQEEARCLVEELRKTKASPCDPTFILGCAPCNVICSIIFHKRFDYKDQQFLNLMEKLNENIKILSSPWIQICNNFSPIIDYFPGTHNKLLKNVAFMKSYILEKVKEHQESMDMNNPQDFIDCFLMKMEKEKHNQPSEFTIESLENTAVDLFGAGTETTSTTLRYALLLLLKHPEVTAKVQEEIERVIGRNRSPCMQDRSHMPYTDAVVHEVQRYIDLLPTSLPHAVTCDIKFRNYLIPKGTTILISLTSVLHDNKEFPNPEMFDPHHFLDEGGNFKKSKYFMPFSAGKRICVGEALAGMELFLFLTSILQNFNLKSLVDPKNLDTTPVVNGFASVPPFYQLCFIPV
Sequence of Peroxisome proliferator-activated receptor gamma/Nuclear receptor coactivator 2 (P37231 whole entry): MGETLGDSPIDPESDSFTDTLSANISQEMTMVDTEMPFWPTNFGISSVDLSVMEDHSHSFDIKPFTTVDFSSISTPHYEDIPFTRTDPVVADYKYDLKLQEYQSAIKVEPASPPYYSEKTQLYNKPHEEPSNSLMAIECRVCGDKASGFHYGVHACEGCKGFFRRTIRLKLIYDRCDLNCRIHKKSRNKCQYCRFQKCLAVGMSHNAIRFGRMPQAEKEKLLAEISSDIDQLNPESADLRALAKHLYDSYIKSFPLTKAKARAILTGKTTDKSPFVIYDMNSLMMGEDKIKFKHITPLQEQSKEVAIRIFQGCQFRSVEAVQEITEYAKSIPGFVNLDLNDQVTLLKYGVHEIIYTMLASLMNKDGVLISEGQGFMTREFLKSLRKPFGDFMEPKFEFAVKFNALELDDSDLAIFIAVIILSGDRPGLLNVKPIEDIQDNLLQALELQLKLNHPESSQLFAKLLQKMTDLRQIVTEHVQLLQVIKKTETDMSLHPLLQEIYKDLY
Sequence of Peroxisome proliferator-activated receptor gamma/Nuclear receptor coactivator 2 (Q15596 whole entry, further chain): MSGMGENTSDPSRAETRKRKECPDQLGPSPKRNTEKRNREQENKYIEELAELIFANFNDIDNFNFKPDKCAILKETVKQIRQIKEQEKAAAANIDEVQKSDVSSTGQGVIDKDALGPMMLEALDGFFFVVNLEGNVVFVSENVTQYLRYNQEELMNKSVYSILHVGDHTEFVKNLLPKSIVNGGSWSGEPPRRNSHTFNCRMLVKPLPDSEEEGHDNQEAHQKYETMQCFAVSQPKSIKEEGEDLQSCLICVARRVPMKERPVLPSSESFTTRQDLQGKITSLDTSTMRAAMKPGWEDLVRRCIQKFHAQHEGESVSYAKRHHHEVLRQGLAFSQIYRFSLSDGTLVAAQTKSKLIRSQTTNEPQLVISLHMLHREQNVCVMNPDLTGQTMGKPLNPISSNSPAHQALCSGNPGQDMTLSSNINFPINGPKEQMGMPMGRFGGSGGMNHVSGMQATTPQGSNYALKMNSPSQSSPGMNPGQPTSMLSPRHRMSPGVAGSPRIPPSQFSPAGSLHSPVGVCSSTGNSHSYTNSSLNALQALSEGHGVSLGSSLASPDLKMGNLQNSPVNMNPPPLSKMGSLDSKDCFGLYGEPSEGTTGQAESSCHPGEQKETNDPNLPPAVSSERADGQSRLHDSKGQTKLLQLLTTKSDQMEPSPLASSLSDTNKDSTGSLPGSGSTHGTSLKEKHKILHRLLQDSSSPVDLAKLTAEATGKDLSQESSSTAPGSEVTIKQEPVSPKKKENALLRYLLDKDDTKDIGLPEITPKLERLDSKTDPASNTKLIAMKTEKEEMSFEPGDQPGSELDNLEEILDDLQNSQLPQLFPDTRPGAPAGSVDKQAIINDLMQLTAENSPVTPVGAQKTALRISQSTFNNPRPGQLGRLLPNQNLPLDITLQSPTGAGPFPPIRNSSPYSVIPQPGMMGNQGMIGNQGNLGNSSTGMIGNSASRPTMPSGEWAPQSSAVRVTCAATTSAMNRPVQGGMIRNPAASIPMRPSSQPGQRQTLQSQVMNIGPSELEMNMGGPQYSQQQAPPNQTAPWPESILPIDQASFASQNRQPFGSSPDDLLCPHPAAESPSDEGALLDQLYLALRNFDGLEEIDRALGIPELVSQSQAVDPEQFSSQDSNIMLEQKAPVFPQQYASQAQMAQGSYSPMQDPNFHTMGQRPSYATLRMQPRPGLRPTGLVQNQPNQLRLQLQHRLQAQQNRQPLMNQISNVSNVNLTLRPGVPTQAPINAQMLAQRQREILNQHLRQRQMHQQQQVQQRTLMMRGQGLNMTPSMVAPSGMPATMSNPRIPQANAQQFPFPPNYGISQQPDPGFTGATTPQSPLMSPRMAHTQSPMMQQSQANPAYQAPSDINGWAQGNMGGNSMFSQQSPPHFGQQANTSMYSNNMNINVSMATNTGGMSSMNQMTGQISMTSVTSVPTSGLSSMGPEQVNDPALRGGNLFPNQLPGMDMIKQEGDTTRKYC
Sequence of Intestinal-type alkaline phosphatase (Homo sapiens, UniProt P09923) (P09923 whole entry): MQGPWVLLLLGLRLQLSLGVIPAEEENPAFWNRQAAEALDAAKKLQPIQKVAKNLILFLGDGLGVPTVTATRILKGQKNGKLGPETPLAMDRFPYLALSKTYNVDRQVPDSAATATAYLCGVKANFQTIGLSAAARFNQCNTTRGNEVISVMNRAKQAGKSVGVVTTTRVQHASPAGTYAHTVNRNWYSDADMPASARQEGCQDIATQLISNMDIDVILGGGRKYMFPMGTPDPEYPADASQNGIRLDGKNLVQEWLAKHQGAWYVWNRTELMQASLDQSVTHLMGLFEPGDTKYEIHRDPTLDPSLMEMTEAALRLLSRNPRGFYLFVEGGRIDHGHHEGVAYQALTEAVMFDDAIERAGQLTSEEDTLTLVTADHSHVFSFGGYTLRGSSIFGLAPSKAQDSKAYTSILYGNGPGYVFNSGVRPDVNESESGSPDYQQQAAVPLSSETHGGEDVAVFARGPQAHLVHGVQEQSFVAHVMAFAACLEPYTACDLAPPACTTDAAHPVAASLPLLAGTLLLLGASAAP

Consider `COc1cccc(N2CCN(C(=O)c3ccc(C[S+]([O-])c4ccccc4C)o3)CC2)c1` (stereo not given), for which the concentration giving a half-maximal response (EC50) in data set [1] was 2.01 µM (active); in [2] it was 0.325 µM (active); in [3], 7.05 µM (active); in data set [5], 22.5 µM (inconclusive); in data set [6], 1.06 µM (active); in [7], 35 µM (active). Besides, the EC50 was 9.12 µM (active) in data set [8]; 0.946 µM (inconclusive) in [9]; > 12 µM (not active) in [10]; < 0.1 µM (active) in data set [11]; 0.946 µM (active) in [12]; 0.325 µM (inconclusive) in data set [13]. The figures for the EC50 in [14], in data set [15] and in data set [16] were 1.59 µM (active), 1.2 µM (active) and 22.5 µM (active), respectively. In [4], the IC50 is > 80 µM (inactive).

As to `Cn1c(=O)cc(SCC(=O)NCCN2CCN(c3ccccc3F)CC2)c2cc(Cl)ccc21`, the EC50 in data set [17] is 33.2 µM (inactive); in data set [18], 7.9 µM (active); in data set [19], > 79.4 µM (not active). Also, the figures for the AC50 result in data set [20] and in data set [21] were “inconclusive” and 39.8 µM (inconclusive), respectively.

As for `OCCCN1c2ccccc2Nc2nnc(-c3ccccc3)cc21`, the IC50 was > 100 µM (inactive) in [22], > 31 µM (not active) in data set [24], > 100 µM (inactive) in data set [25] and 10.3 µM (active) in [27]. The EC50 in data set [23] is 0.424 µM (active); in [26], > 12 µM (not active); in [28], < 0.1 µM (inconclusive); in [29], 0.549 µM (active); in data set [30], 1.97 µM (active).
